Earlier results, collected in patent EP1136875A2, “Small 3D emulsions with enhanced photographic response” (EASTMAN KODAK COMPANY, priority 2000, dated 2001).

Settings: value is for the conjugate acid of the printed base

| pKa's in water of the conjugate acids of some useful bases | SMILES |
| --- | --- |
| 4.65 | C[N+](C)(C)[O-] [(CH3)3N^+–O^-] |
| 3.33 | CC(=O)S [CH3–COS^-] |
| 3.67 | CC(=O)NCC(=O)O [CH3–CO–NH–CH2–CO2^-] |
